Measured values published in US11612567B2, “Ocular inserts comprising a covalently linked steroid dimer” (Ripple Therapeutics Corporation, priority 2018, dated 2023).

Assays:
[1] = tested on: inflammation or neovascularization; assay: Micro- or nanoparticles injected into the suprachoroidal space (Example 13); format: in vivo; conditions: release over months to years
Method: Micro- or nanoparticles of Compound 1 are formed using the methods described above. The particles are injected into the suprachoroidal space of a subject with an ocular condition associated with inflammation or neovascularization or as an adjunctive therapy to reduce inflammation associated with ocular surgery.

[2] = tested on: endotoxin-induced inflammation in the eye; assay: Endotoxin (LPS)-induced inflammation in the eye after intravitreal implantation, OCT vitreal cell count and retinal thickness; format: in vivo; conditions: rat, intravitreal 23 G and 30 G implants; LPS 1 day (acute) or 60 days (sub-chronic) post-implantation
Method: The implants were loaded into 23 G and 30 G needles respectively and were sterilized by ethylene oxide (ETO) gas. An acute study evaluating only the 23 G heat molded implants was performed and a sub-chronic study evaluating both implants followed. […] Inflammation in the eye was induced using an intravitreal injection of the endotoxin lipopolysaccharide (LPS) 1-day post-implantation for the acute study and 60 days post-implantation for the sub-chronic study. […] Optical coherence tomography (OCT) was used to image the eyes (FIG. 6E) and inflammation was assessed by quantifying the number of cells in the vitreous humour and the thickness of the retinal tissue measured from the OCT images.

rat eyes = assay: Surface erosion of intravitreal implants in rat eyes, fundus microscopy; format: in vivo; conditions: heat-molded cylinders injected intravitreally
Method: The cylinders were injected intravitreally into rat eyes.

[3] = Intravitreal cylinders for inflammatory or neovascularization conditions (Example 9); format: in vivo; conditions: cylinders injected into the vitreous humour
Method: Cylinders of Compound 1 are formed using methods described above. The cylinders are injected into the vitreous humour and release dexamethasone to the surrounding tissues including tissues in the anterior eye, the posterior eye, and surrounding tissues. […] The intravitreal implants release drug that may be used in subjects with diabetic macular edema, macular edema from retinal vein occlusion, uveitis, cystoid macular edema, post-surgical inflammation (e.g. cataract or glaucoma surgery), age-related macular degeneration, and other ocular conditions.

[4] = tested on: post-surgical inflammation in the eye; assay: Schlemm's canal fiber or tube implant after surgery (Example 11); format: in vivo; conditions: release by surface erosion over weeks to months
From the text: A fiber or tube of Compound 1 is formed using the methods described above.

intraocular pressure [5] = assay: Suprachoroidal insert of Compound 1 in a subject with glaucoma (Example 14); format: in vivo; conditions: cylinder or tube as conduit from anterior chamber into suprachoroidal space; months to years
From the text: A cylinder or tube of Compound 1 is formed using the methods described above. The implant is inserted into the eye of a subject with glaucoma to create a conduit from the anterior chamber into the suprachoroidal space.

[6] = 37° C.
Method: Heat-molded pellets from Compound 1 (˜1 mm×1 mm) were placed in 20 mL glass vials and 2 mL of release buffer (either 100% phosphate buffered saline (PBS), 1% fetal bovine serum (FBS) in PBS, or 100% FBS) was added. Samples were incubated at 37° C. on a shaker rotating at 115 rpm. After 1 day, 3 days, 7 days, and subsequently in alternating 3 and 4 day intervals (i.e., 1, 3, 7, 10, 14 days etc.), release buffer was sampled directly (PBS) or syringe filtered, proteins were precipitated with acetonitrile, and drug release products were extracted. The samples were analyzed by high performance liquid chromatography (HPLC) to quantify drug products. Cumulative drug release was calculated and plotted as a percentage of the total drug in each pellet released over time (FIG. 1E).
Drug release from the glassy state heat molded pellets was carried out in PBS and/or 100% FBS, as described in Example 1, for different time periods.
Drug release from the pellets (˜1 mm×1 mm and 1 mg of total mixture) was carried out in PBS as described in Example 1. Cumulative drug release was calculated and plotted as a percentage of the total drug released over time.

[7] = tested on: tissue response to the device; assay: Coating on a MIGS device inserted into the eye (Example 10); format: in vivo; conditions: drug released over months to years
From the text: Coating of Compound 1 is applied onto a MIGS device as described in the methods above.

[8] = Dexamethasone in the vitreous humour after intravitreal injection of cylinders; format: in vivo; conditions: New Zealand white rabbits, intravitreal cylinders 30 G×1 mm, 30 G×6 mm, 23 G×6 mm
Method: The cylinders were injected intravitreally into New Zealand white rabbits and dexamethasone was quantified in the vitreous humour at different time points.

[9] = tested on: post-surgical inflammation and infection; assay: Intracameral implants of Compound 1 and 9 in subjects receiving ocular surgery (Example 21); format: in vivo; conditions: intracameral implants of both compounds; dexamethasone and fusidic acid release over days to weeks to a few months
From the text: Cylinders, pellets, or fibrous meshes of Compound 1 and 9 are formed using the methods described above. The implants are inserted intracamerally into subjects that are receiving an ocular surgical procedure.

[10] = tested on: VEGF-induced retinal vascular leakage; assay: VEGF-induced retinal vascular leakage after intravitreal implantation, fundus microscopy and fluorescein angiography; format: in vivo; conditions: Dutch belted rabbits, intravitreal 27 G and 30 G cylinders; VEGF at 1 week and 10 weeks post-implantation; versus sham injection
Method: The cylinders were extruded with 27 G and 30 G nozzles to get diameters ˜0.2 mm and ˜0.12 mm respectively. The cylinders were cut to different lengths, ETO gas sterilized, and injected intravitreally into the eyes of Dutch belted rabbits. VEGF was injected intravitreally at 1 week and 10 weeks post-implantation to induce retinal vascular leakage. Sham injection was used as a negative control.

[11] = tested on: post-surgical inflammation in the eye; assay: Intracameral fiber mesh or cylinder after surgery (Example 12); format: in vivo; conditions: steady release over several months, e.g., three months
From the text: Fibers or cylinders are formed from Compound 1 according to the methods described above. The fibers are woven into a mesh and are placed into the eye of a subject having received surgery.

intraocular pressure [12] = assay: Intracameral implants of Compound 7 in subjects with glaucoma (Example 17); format: in vivo; conditions: intracameral cylinders, pellets or fibrous meshes; anecortave release by surface erosion over months to years
From the text: Cylinders, pellets, or fibrous meshes of Compound 7 are formed using the methods described above. The implants are inserted intracamerally into subjects with glaucoma.

intraocular pressure [13] = assay: Suprachoroidal insert of Compound 7 in a subject with glaucoma (Example 18); format: in vivo; conditions: cylinder or tube as conduit into suprachoroidal space, anecortave release; months to years
From the text: A cylinder or tube of Compound 7 is formed using the methods described above. The implant is inserted into the eye of a subject with glaucoma to create a conduit from the anterior chamber into the suprachoroidal space.

[14] = tested on: post-surgical infection in the eye; assay: Intracameral implants of Compound 9 in subjects receiving ocular surgery (Example 19); format: in vivo; conditions: fusidic acid release over days to weeks to a few months
From the text: Cylinders, pellets, or fibrous meshes of Compound 9 are formed using the methods described above. The implants are inserted intracamerally into subjects that are receiving an ocular surgical procedure.

For `C[C@@H]1C[C@H]2[C@@H]3CCC4=CC(=O)C=C[C@]4(C)[C@@]3(F)[C@@H](O)C[C@]2(C)[C@@]1(O)C(=O)COC(=O)OCCOCCOCCOC(=O)OCC(=O)[C@@]1(O)[C@H](C)C[C@H]2[C@@H]3CCC4=CC(=O)C=C[C@]4(C)[C@@]3(F)[C@@H](O)C[C@@]21C` [Compound 1, Dexamethasone-Triethylene Glycol-Dexamethasone], the inflammation or neovascularization [1] was “reduces inflammation or neovascularization”, the “inflammation in the eye (vitreal cell count and retinal thickness by OCT)” value [2] was “inhibit endotoxin-induced inflammation in the eye” and the “erosion of the implant in the eye over time (fundus microscopy)” value (rat eyes) was “surface erosion of the implant”. The “duration of dexamethasone release by surface erosion” value [3] was “months to years”, the post-surgical inflammation [4] was “prevent or reduce inflammation associated with the surgical procedure” and the intraocular pressure (intraocular pressure [5]) was “reduce intraocular pressure”. The “in vitro drug release, dose and duration” value ([6]; extruded cylinders 30 G×1 mm, 30 G×6 mm, 23 G×6 mm, PBS) was “roughly following surface erosion theory”, the “cumulative drug release plotted over time” value ([6]; glassy state heat molded pellets ~1 mm×1 mm, PBS and/or 100% FBS) was “mostly linearly” and the “erosion of pellets over time (representative images)” value ([6]; heat-molded pellets ~1 mm×1 mm, 100% FBS) was “surface erosion over time”. For the same compound, the “tissue response and fibrosis” value [7] was “inhibit a tissue response to the device and reduce fibrosis”, the “dexamethasone concentration in the vitreous humour over time” value [8] was “consistent dose of dexamethasone is released” and the “post-surgical inflammation and infection” value [9] was “reduce inflammation associated with the surgery and prevent infection”. The retinal vascular leakage [10] was “inhibited VEGF-induced retinal vascular leakage” and the “inflammation in the eye” value [11] was “Inflammation in the eye is reduced”.
In the case of “Anecortave-Triethylene Glycol-Anecortave [Compound 7]”, the intraocular pressure (intraocular pressure [12]) was “lower intraocular pressure in the eye” and the intraocular pressure (intraocular pressure [13]) was “reduce intraocular pressure”.
For “Fusidic Acid-Triethylene Glycol-Fusidic Acid (carbonate ester) [Compound 9]”, the post-surgical infection [14] was “prevent infection” and the “post-surgical inflammation and infection” value [9] was “reduce inflammation associated with the surgery and prevent infection”.
